# PubChem BioAssay AID1963848 (Molecular Pharmacology Branch, DTP, NCI, 2024)
# Test system: 379773-124-R-J2-PDC spheroid viability
# Experiment: Anticancer human tumor 379773-124-R-J2-PDC patient-derived endometrial carcinoma cell line growth inhibition [POLQ]
# Conditions: spheroids with HUVEC and MSC; for IC50: curve of first compound; for viability, T/C: stronger effect = lower value
# Summary of the method: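 Growth inhibition in 3D: complex spheroids (tumor PDC, HUVEC, MSC) treated with POLQ inhibitor combinations; where Cmax unknown, highest tested concentration 10 microM, except SN-38 at 1 microM.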
# [1] = second compound 0.0316 µM, first compound 0.0316 µM
# [2] = second compound 0.0316 µM, first compound 0.1 µM
# [3] = second compound 0.0316 µM, first compound 0.316 µM
# [4] = second compound 0.0316 µM, first compound 1 µM
# [5] = second compound 0.0316 µM, first compound 3.16 µM
# [6] = second compound 0.0316 µM, first compound 10 µM
# [7] = second compound 0.1 µM, first compound 0.0316 µM
# [8] = second compound 0.1 µM, first compound 0.1 µM
# [9] = second compound 0.1 µM, first compound 0.316 µM
# [10] = second compound 0.1 µM, first compound 1 µM
# [11] = second compound 0.1 µM, first compound 3.16 µM
# [12] = second compound 0.1 µM, first compound 10 µM
# [13] = second compound 0.316 µM, first compound 0.0316 µM
# [14] = second compound 0.316 µM, first compound 0.1 µM
# [15] = second compound 0.316 µM, first compound 0.316 µM
# [16] = second compound 0.316 µM, first compound 1 µM
# [17] = second compound 0.316 µM, first compound 3.16 µM
# [18] = second compound 0.316 µM, first compound 10 µM
# [19] = second compound 1 µM, first compound 0.0316 µM
# [20] = second compound 1 µM, first compound 0.1 µM
# [21] = second compound 1 µM, first compound 0.316 µM
# [22] = second compound 1 µM, first compound 1 µM
# [23] = second compound 1 µM, first compound 3.16 µM
# [24] = second compound 1 µM, first compound 10 µM
# [25] = second compound 3.16 µM, first compound 0.0316 µM
# [26] = second compound 3.16 µM, first compound 0.1 µM
# [27] = second compound 3.16 µM, first compound 0.316 µM
# [28] = second compound 3.16 µM, first compound 1 µM
# [29] = second compound 3.16 µM, first compound 3.16 µM
# [30] = second compound 3.16 µM, first compound 10 µM
# [31] = second compound 10 µM, first compound 0.0316 µM
# [32] = second compound 10 µM, first compound 0.1 µM
# [33] = second compound 10 µM, first compound 0.316 µM
# [34] = second compound 10 µM, first compound 1 µM
# [35] = second compound 10 µM, first compound 3.16 µM
# [36] = second compound 10 µM, first compound 10 µM
# 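Further: spheroids exposed to drugs for seven days before readout.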
# 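Wherever viability, T/C is given: percent viability relative to DMSO vehicle control taken as 100%.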
structure (smiles),measurement,setting,value
CC1COCCN1c1cc(C2(O)CC3CCC(C2)O3)c2cnn(-c3ccn[nH]3)c2n1 (stereo not drawn) + Cc1cccc(N(C)C(=O)C2C(O)CCN2c2nc(C)cc(C(F)(F)F)c2C#N)c1,IC50,second compound 0.0316 µM,82.6 nM
same,IC50,second compound 0.1 µM,92.6 nM
same,IC50,second compound 0.316 µM,82.7 nM
same,IC50,second compound 1 µM,96.1 nM
same,IC50,second compound 3.16 µM,68.3 nM
same,IC50,second compound 10 µM,68.1 nM
same,"viability, T/C",[1],75.6%
same,"viability, T/C",[2],45.4%
same,"viability, T/C",[3],14.1%
same,"viability, T/C",[4],12.7%
same,"viability, T/C",[5],7.12%
same,"viability, T/C",[6],2.45%
same,"viability, T/C",[7],82.8%
same,"viability, T/C",[8],48.1%
same,"viability, T/C",[9],15.9%
same,"viability, T/C",[10],11.5%
same,"viability, T/C",[11],7.15%
same,"viability, T/C",[12],2.96%
same,"viability, T/C",[13],84.9%
same,"viability, T/C",[14],43.2%
same,"viability, T/C",[15],11.8%
same,"viability, T/C",[16],9.19%
same,"viability, T/C",[17],6.89%
same,"viability, T/C",[18],2.54%
same,"viability, T/C",[19],80.8%
same,"viability, T/C",[20],49%
same,"viability, T/C",[21],12.2%
same,"viability, T/C",[22],10.9%
same,"viability, T/C",[23],7%
same,"viability, T/C",[24],2.13%
same,"viability, T/C",[25],70.6%
same,"viability, T/C",[26],40.2%
same,"viability, T/C",[27],15.1%
same,"viability, T/C",[28],9.34%
same,"viability, T/C",[29],7.31%
same,"viability, T/C",[30],2.13%
same,"viability, T/C",[31],68.3%
same,"viability, T/C",[32],41.5%
same,"viability, T/C",[33],15.1%
same,"viability, T/C",[34],10.8%
same,"viability, T/C",[35],7.1%
same,"viability, T/C",[36],1.64%
COc1cc2cc(C(=O)CCC(=O)O)sc2cc1OC + Cc1cccc(N(C)C(=O)C2C(O)CCN2c2nc(C)cc(C(F)(F)F)c2C#N)c1,IC50,second compound 0.0316 µM,> 10000 nM
same,IC50,second compound 0.1 µM,> 10000 nM
same,IC50,second compound 0.316 µM,> 10000 nM
same,IC50,second compound 1 µM,> 10000 nM
same,IC50,second compound 3.16 µM,> 10000 nM
same,IC50,second compound 10 µM,> 10000 nM
same,"viability, T/C",[1],90.8%
same,"viability, T/C",[2],100%
same,"viability, T/C",[3],86.1%
same,"viability, T/C",[4],89.3%
same,"viability, T/C",[5],89.2%
same,"viability, T/C",[6],102%
same,"viability, T/C",[7],96.3%
same,"viability, T/C",[8],89.2%
same,"viability, T/C",[9],85.3%
same,"viability, T/C",[10],96.9%
same,"viability, T/C",[11],105%
same,"viability, T/C",[12],91.2%
same,"viability, T/C",[13],102%
same,"viability, T/C",[14],88.5%
same,"viability, T/C",[15],85.2%
same,"viability, T/C",[16],90.1%
same,"viability, T/C",[17],85.8%
same,"viability, T/C",[18],89%
same,"viability, T/C",[19],88.5%
same,"viability, T/C",[20],103%
same,"viability, T/C",[21],96.3%
same,"viability, T/C",[22],100%
same,"viability, T/C",[23],102%
same,"viability, T/C",[24],88.1%
same,"viability, T/C",[25],101%
same,"viability, T/C",[26],83.7%
same,"viability, T/C",[27],103%
same,"viability, T/C",[28],100%
same,"viability, T/C",[29],87.7%
same,"viability, T/C",[30],95.1%
same,"viability, T/C",[31],94.5%
same,"viability, T/C",[32],84.6%
same,"viability, T/C",[33],89.7%
same,"viability, T/C",[34],89.9%
same,"viability, T/C",[35],103%
same,"viability, T/C",[36],85.3%
COc1cccc(OCCCN)c1-c1cc(Nc2cnc(C#N)cn2)n[nH]1 + Cc1cccc(N(C)C(=O)C2C(O)CCN2c2nc(C)cc(C(F)(F)F)c2C#N)c1,IC50,second compound 0.0316 µM,6.72 nM
same,IC50,second compound 0.1 µM,6.43 nM
same,IC50,second compound 0.316 µM,6.04 nM
same,IC50,second compound 1 µM,6.31 nM
same,IC50,second compound 3.16 µM,6.03 nM
same,IC50,second compound 10 µM,6.19 nM
same,"viability, T/C","second compound 0.0316 µM, first compound 0.00316 µM",87.1%
same,"viability, T/C","second compound 0.0316 µM, first compound 0.01 µM",30.5%
same,"viability, T/C",[1],2.41%
same,"viability, T/C",[2],2.05%
same,"viability, T/C",[3],1.74%
same,"viability, T/C",[4],1.59%
same,"viability, T/C","second compound 0.1 µM, first compound 0.00316 µM",92.8%
same,"viability, T/C","second compound 0.1 µM, first compound 0.01 µM",23.4%
same,"viability, T/C",[7],3.34%
same,"viability, T/C",[8],3.31%
same,"viability, T/C",[9],2.36%
same,"viability, T/C",[10],1.82%
same,"viability, T/C","second compound 0.316 µM, first compound 0.00316 µM",85.5%
same,"viability, T/C","second compound 0.316 µM, first compound 0.01 µM",22.3%
same,"viability, T/C",[13],3.19%
same,"viability, T/C",[14],1.9%
same,"viability, T/C",[15],1.95%
same,"viability, T/C",[16],2.25%
same,"viability, T/C","second compound 1 µM, first compound 0.00316 µM",93.4%
same,"viability, T/C","second compound 1 µM, first compound 0.01 µM",21.1%
same,"viability, T/C",[19],3.23%
same,"viability, T/C",[20],2.53%
same,"viability, T/C",[21],2.26%
same,"viability, T/C",[22],3%
same,"viability, T/C","second compound 3.16 µM, first compound 0.00316 µM",84.3%
same,"viability, T/C","second compound 3.16 µM, first compound 0.01 µM",23.2%
same,"viability, T/C",[25],3.07%
same,"viability, T/C",[26],2.7%
same,"viability, T/C",[27],2.36%
same,"viability, T/C",[28],0.99%
same,"viability, T/C","second compound 10 µM, first compound 0.00316 µM",88.8%
same,"viability, T/C","second compound 10 µM, first compound 0.01 µM",22.1%
same,"viability, T/C",[31],4.5%
same,"viability, T/C",[32],4.11%
same,"viability, T/C",[33],2.59%
same,"viability, T/C",[34],2.26%
COc1cc(C2c3cc4c(cc3C(OC3OC5COC(C)OC5C(O)C3O)C3COC(=O)C23)OCO4)cc(OC)c1O (stereo not drawn) + Nc1ccc(C#CCN(C(=O)Cc2ncc(C(F)(F)F)cc2C(F)(F)F)c2ccc(F)cc2)nn1,IC50,second compound 0.0316 µM,1500 nM
same,IC50,second compound 0.1 µM,1570 nM
same,IC50,second compound 0.316 µM,1490 nM
same,IC50,second compound 1 µM,1240 nM
same,IC50,second compound 3.16 µM,1410 nM
same,IC50,second compound 10 µM,1240 nM
same,"viability, T/C",[1],95.4%
same,"viability, T/C",[2],116%
same,"viability, T/C",[3],81.9%
same,"viability, T/C",[4],70.4%
same,"viability, T/C",[5],17%
same,"viability, T/C",[6],15.5%
same,"viability, T/C",[7],98.8%
same,"viability, T/C",[8],86%
same,"viability, T/C",[9],90%
same,"viability, T/C",[10],70.2%
same,"viability, T/C",[11],18.6%
same,"viability, T/C",[12],14.1%
same,"viability, T/C",[13],92.5%
same,"viability, T/C",[14],116%
same,"viability, T/C",[15],97%
same,"viability, T/C",[16],67.4%
same,"viability, T/C",[17],15.9%
same,"viability, T/C",[18],16.8%
same,"viability, T/C",[19],99.1%
same,"viability, T/C",[20],96.2%
same,"viability, T/C",[21],78.4%
same,"viability, T/C",[22],62.2%
same,"viability, T/C",[23],17.3%
same,"viability, T/C",[24],13.8%
same,"viability, T/C",[25],94.1%
same,"viability, T/C",[26],96.1%
same,"viability, T/C",[27],81.7%
same,"viability, T/C",[28],65.1%
same,"viability, T/C",[29],18.2%
same,"viability, T/C",[30],13.6%
same,"viability, T/C",[31],98%
same,"viability, T/C",[32],92.7%
same,"viability, T/C",[33],98%
same,"viability, T/C",[34],57.6%
same,"viability, T/C",[35],16.9%
same,"viability, T/C",[36],16.3%
